According to PMC6934184, “Selective DNA-PKcs inhibition extends the therapeutic index of localized radiotherapy and chemotherapy” (The Journal of Clinical Investigation, 2019):

Biological target: T1, PRKCG (PKC gamma) (Homo sapiens, UniProt P05129)
T1 construct: purchased Thermo Fisher Scientific (Life Technologies) SelectScreen
Experiment: SelectScreen Z'LYTE
Assay type: biochemical
How it was run: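 Percent values come from Thermo SelectScreen profiling of NU5455, combining activity and binding assays. CSF1R was run in Z'LYTE format at Km app ATP, and CAMK1 in Adapta format with ATP listed at 10.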

CN(C(=O)CN1CCOCC1)c1ccc2sc3c(-c4cccc5c(=O)cc(N6CC7CCC(C6)O7)oc45)cccc3c2c1 [NU5455]
inhibition at 1 µM: 7.6%
